# Data as given in US12285434B2, “Therapeutic, preventive, or improvement agent for inflammatory disease and allergic disease” (The University of Tokyo, priority 2018, dated 2025).
# What was measured:
# [1] = system: histamine-induced vascular permeability in mouse ears; test: Modified Miles assay: histamine-induced vascular hyperpermeability (Evans blue extravasation); format: in vivo, mouse (C57BL/6); conditions: 15 minutes, before 400 μg histamine
# Procedure: Fifteen (15) minutes after the intracutaneous injection, a vehicle (80% acetone) or histamine (400 μg, manufactured by Molecular Probes) was percutaneously administered to the ventral surface of the ears. To evaluate vascular permeability, Evans blue (50 mg/kg, manufactured by Sigma) was injected intravenously 5 minutes after the administration of histamine. The mice were then euthanized by cervical dislocation 30 minutes after the injection of Evans blue. The ears were dissected, dried at 55° C., and weighed. Extravasated Evans blue present in the ears was extracted in formamide (manufactured by Molecular Probes), and quantified spectrophotometrically (manufactured by PerkinElmer Japan Co., Ltd.) at a wavelength of 610 nm.
# [2] = system: DSS-induced colitis model mice; test: DSS-induced colitis: colitis severity (body weight, fecal score, colon length); format: in vivo, mouse (C57BL/6); conditions: 1 mg/kg/day intraperitoneally on Days 9, 11 and 13
# Text: (§1) C57BL/6 strain mice (male, 8 to 12 weeks old) were fed with water containing 2% dextran sodium sulfate (manufactured by MP Bio, hereinafter sometimes referred to as “DSS”) for 4 days to prepare colitis model mice (hereinafter, sometimes referred to as “colitis group” in Examples 7 to 10). The mice taken with DSS for 4 days were fed with normal water from Day 5. The DSS intake start date was defined as Day 1 of the test, and the day before the DSS intake start date was defined as Day 0 of the test. In addition, a group in which C57BL/6 strain mice (male, 8 to 12 weeks old) were fed with normal water was defined as a “healthy group” (the same applies to Examples 8 to 10).
# In order to evaluate colitis severity, the fecal condition was evaluated and the body weight was measured daily for the colitis model mice and healthy group prepared in the above item (1). The fecal condition was evaluated based on the following five-grade fecal scores. Specifically, the fecal scores were 0: normal; 1: soft but still formed; 2: very soft; 3: diarrhea; and 4: bloody feces. In addition, the colon length was measured as an index of the colitis severity.
# (§2) To investigate the role of 5,6-DiHETE in the healing phase, the colitis model mice prepared in Example 7(1) were intraperitoneally injected with 5,6-DiHETE (manufactured by Cayman Chemical) (50 μg/kg/day) or HC-067047 (manufactured by Cayman Chemical) (1 mg/kg/day) on Days 9, 11 and 13 of the test (hereinafter, sometimes referred to as “5,6-DiHETE-administered group” and “HC-067047-administered group,” respectively, in Examples 9 and 10). HC-067047 is known to inhibit an increase of calcium ion concentration in endothelial cells.
# The colitis severity was determined according to the index and criteria described in Example 7(2).
# [3] = system: DSS-induced colitis model mice; test: DSS-induced colitis: histologic score and colon edema (wet/dry weight ratio); format: in vivo, mouse (C57BL/6); conditions: Day 14; 1 mg/kg/day intraperitoneally on Days 9, 11 and 13
# Text: as §1, §2
# Distal colon sections on Day 14 of the test in the healthy group, colitis group, 5,6-DiHETE-administered group and HC-067047-administered group were fixed in 4% paraformaldehyde for 24 hours, embedded in paraffin and cut into 2 μm-thick sections. Hematoxylin staining and eosin staining of these sections were performed according to a conventional method. The histologic score was then decided according to the description of Kruschewski M. et al., Digestive Diseases and Sciences, 46: 2336-2343 (2001) to evaluate the colitis severity.
# The wet/dry weight ratio was used as an index of colon edema (Rachmilewitz D. et al., Gastroenterology, 97: 326-337(1989)). Specifically, the distal colon was collected, and the wet weight was measured. The distal colon was then dried at 60 C for 24 hours, and, thereafter, the dry weight was measured.
# anaphylaxis model mice = test: Histamine-induced anaphylaxis: blood pressure and body temperature; format: in vivo, mouse (C57BL/6); conditions: 200 mg/kg intravenously 15 minutes before histamine 50 mg/kg
# Procedure: Histamine (50 mg/kg) lysed in a physiological saline solution was intravenously administered to C57BL/6 strain mice (male, 8 to 12 weeks old) to prepare anaphylaxis model mice (hereinafter, sometimes referred to as “anaphylaxis group”). […] L-NAME is an NO synthesis inhibitor. As indices of anaphylactic symptoms, a body temperature decrease and a blood pressure decrease were observed.
# HUVECs = test: Endothelial barrier function: transendothelial electrical resistance (TER); format: cell-based, human
# Procedure: (§3) In Examples 4 to 6, human umbilical vein endothelial cells (hereinafter, sometimes referred to as “HUVECs”, manufactured by Lonza) were cultured in EGM-2 (manufactured by Lonza K.K.). These cells (passages 4 to 9) were used for experiments after 4-hour starvation in EBM-2 (manufactured by Lonza K.K.) containing 2% FBS.
# The in vitro endothelial barrier function was evaluated by measuring the transendothelial electrical resistance (hereinafter, sometimes referred to as “TER”) of the HUVECs prepared in the above item (1) over time. Specifically, the transendothelial electrical resistance was measured using an xCELLigence Real-Time Cell Analyzer DP system (manufactured by Roche). The system monitors changes in TER across an interdigitated microelectrode at the bottom of tissue culture E-plates (manufactured by Roche). The HUVECs (8,000 cells) were plated on the E-plates and incubated until confluent. Then, the following operation (a) or (b) was performed.
# (a) Each reagent was added to plates on which the HUVECs were cultured, so as to give a vehicle, 1 U/mL thrombin, 1 μM forskolin, or 0.1 μM or 0.3 μM 5,6-DiHETE (FIGS. 4A and 4B).
# (b) A vehicle or […] was added to plates on which the HUVECs were cultured, so as to attain 10 μM. […] Thirty (30) minutes after the addition, 10 μM histamine was added to each plate 30 minutes after the addition (FIGS. 4C and 4D).
# In the above operations (a) and (b), the TER was measured every 60 seconds. For normalization, the cell index value at each time point is shown as a ratio relative to the initial value. The maximum normalized cell index after stimulation was quantified and represented as maximal response. Note that it is known that the disruption of the endothelial barrier function lowers the TER, but that the enhancement of the endothelial barrier function increases the TER.
# NO production in HUVECs = test: Histamine-induced NO production (nitrite and nitrate); format: cell-based, human; conditions: pretreatment 10 μM, 15 minutes; histamine 10 μM
# Procedure: as §3
# The HUVECs were washed three times with HEPES and incubated in HEPES supplemented with 1 mM L-arginine and 10 μM tetrahydrobiopterin. After equilibration for 30 minutes, the medium was exchanged, and the cells were incubated for additional 30 minutes. […] The conditioned media before and after the stimulation (100 μL each) were collected and centrifuged in each amount of 300 g for 3 minutes. The supernatants were collected, and used to measure nitrite and nitrate, as stable metabolites of NO, by an ENO-20 NOx analyzer (manufactured by Eicom Corporation). The degrees of increases of nitrite and nitrate levels after the stimulation were normalized with cellular protein contents.
# mouse aortae = test: Measurement of vascular contraction of aorta (aortic ring specimens); conditions: cumulative addition 0.001, 0.01, 0.1 and 1 μM
# Procedure: After excision of the thoracic aortae from untreated mice and removal of fat and connective tissue, the aortae were cut into rings to prepare aortic ring specimens. The ring specimens were immersed in a liquid tank filled with a normal nutrient solution (physiological saline solution containing 136.9 mM NaCl, 5.4 mM KCl, 5.5 mM glucose, 23.8 mM NaHCO3, 1.5 mM CaCl2, 1.0 mM MgCl2 and 0.01 mM EDTA), and two stainless hooks were penetrated through the lumens of the ring specimens. One end of each of the stainless hooks was fixed, and the other end thereof was connected to a force-displacement transducer (T7-30-240, manufactured by Orientec Co., Ltd.) connected to a strain amplifier (3134 strain AMPL, manufactured by Yokogawa Test & Measurement Corporation). Then, the following operation (a), (b) or (c) was performed.
# (a) Norepinephrine (manufactured by Sigma) was cumulatively added into the liquid tank containing the ring specimens after stabilization of each contraction (every about 30 minutes) so as to attain 0.001 μM, 0.01 μM, 0.1 μM and 1 μM, and this group was designated as a “norepinephrine-administered group” (n=4) (FIG. 3A). 5,6-DiHETE was cumulatively added into the liquid tank containing the ring specimen after stabilization of each contraction (every about 30 minutes) so as to attain 0.001 μM, 0.01 μM, 0.1 μM and 1 μM, and this group was designated as a “5,6-DiHETE-administered group” (n=4) (FIG. 3A).
# (b) Norepinephrine was added into the liquid tank containing the ring specimens so as to attain 0.3 μM, and precontraction was induced by administration of norepinephrine (FIG. 3B). Then, after the contraction by the administration of norepinephrine was stabilized, acetylcholine (manufactured by Sigma) was cumulatively added after stabilization of each relaxation reaction (every about 15 minutes) so as to attain 0.03 μM, 0.1 μM, 0.3 μM and 1 μM, and this group was designated as an “acetylcholine-administered group” (FIG. 3B). After the contraction by the administration of norepinephrine was stabilized, 5,6-DiHETE was cumulatively added every about 15 minutes so as to attain 0.001 μM, 0.01 μM, 0.1 μM and 1 μM, and this group was designated as a “5,6-DiHETE-administered group” (n=4) (FIG. 3B).
# (c) In order to verify the effect of 5,6-DiHETE on the acetylcholine administration, norepinephrine was added into the liquid tank containing the ring specimens so as to attain 1 μM. After the contraction by the administration of norepinephrine was stabilized, 5,6-DiHETE or a vehicle (solvent alone) was added so as to attain 1 μM. […]
# In the above operations (a) to (c), tension (contractile force) generated in the aortic ring specimens was measured isometrically over time using the above force-displacement transducer under a resting tension of 3 mN, and recorded.
compound,measurement,setting,value
CC/C=C\C/C=C\C/C=C\C/C=C\C=C\C(O)C/C=C\CCC(=O)O (stereo not drawn) [7-HDoHE],effect on histamine-induced dye extravasation,[1]; pretreatment 0.1 μg/ear,did not affect histamine-induced dye extravasation
CC/C=C\CC(O)/C=C/C=C\CCCCCCCC(=O)O (stereo not drawn) [13-HOTrE],effect on histamine-induced dye extravasation,[1]; pretreatment 0.1 μg/ear,did not affect histamine-induced dye extravasation
"Cc1c(C(=O)Nc2cccc(C(F)(F)F)c2)cc(-c2ccccc2)n1CCCN1CCOCC1 [HC-067047, reference compound]",recovery from colitis as compared with the colitis group,[2],promoted in recovery from colitis
same,"colon edema, wet/dry weight ratio",[3],5.0±0.1
same,histologic score of colitis,[3],2.8±0.4
COC(=O)[C@@H](N)CCCNC(=N)N[N+](=O)[O-] [L-NAME],blood pressure,anaphylaxis model mice,106.6±8.8 mmHg
same,body temperature decrease,anaphylaxis model mice,−0.8±0.2 °C
[Cl][La]([Cl])[Cl] [LaCl3],effect on histamine-induced dye extravasation,[1]; pretreatment 250 μg/ear,significantly inhibited dye extravasation
"CN(C)CCOC(c1ccccc1)c1ccccc1 [diphenhydramine, reference compound]",histamine-induced reduction of TER,HUVECs; 10 μM pretreatment before histamine 10 μM,abrogated
same,histamine-induced NO production,NO production in HUVECs,abrogated
"NC[C@H](O)c1ccc(O)c(O)c1 [norepinephrine, reference compound]",contraction of aorta,mouse aortae,contracted in a concentration-dependent manner
thrombin,change of TER,"HUVECs; 1 U/mL, alone",significantly lowered the TER
